These are literature values, as cited in patent US20180303793A1, “METHODS AND COMPOSITIONS FOR TREATING TRAUMATIC BRAIN INJURY” (SCYTHIAN BIOSCIENCES INC., priority 2015, published 2018).

For this data set the following is noted: single agent.

On to `CCCCCCC(C)(C)c1cc(O)c2c(c1)OC(C)(C)[C@H]1CC=C(CO)C[C@H]21` [dexanabinol, 7-hydroxy-delta6-tetrahydrocannabinol 1,1-dimethylheptyl], for which, for the setting “one prior study”, the intracranial pressure result is on record as “lowered intracranial pressure”. Also, for the setting “other prior studies”, the “gliosis and the subsequent immune cascade” value is given as “did not inhibit gliosis”.
